Measurements as given in article PMC6957263 (Bioorganic & medicinal chemistry letters, 2013).

Experiments:
[1] = target: T1, human TRPV1 heterologously expressed in CHO cells (Homo sapiens, UniProt Q8NER1); assay: binding competition assay with [3H]RTX; settings: for fold greater potency than the racemate in binding affinity: 2R vs 2, 3R vs 3; for fold less potent than the racemate in binding affinity: 2S vs 2, 3S vs 3
[2] = target: T1, human TRPV1 heterologously expressed in CHO cells; assay: functional 45Ca2+ uptake assay; type: cell-based
[3] = human TRPV1, within ca. x-fold of RTX

T1 sequence (Q8NER1 whole entry): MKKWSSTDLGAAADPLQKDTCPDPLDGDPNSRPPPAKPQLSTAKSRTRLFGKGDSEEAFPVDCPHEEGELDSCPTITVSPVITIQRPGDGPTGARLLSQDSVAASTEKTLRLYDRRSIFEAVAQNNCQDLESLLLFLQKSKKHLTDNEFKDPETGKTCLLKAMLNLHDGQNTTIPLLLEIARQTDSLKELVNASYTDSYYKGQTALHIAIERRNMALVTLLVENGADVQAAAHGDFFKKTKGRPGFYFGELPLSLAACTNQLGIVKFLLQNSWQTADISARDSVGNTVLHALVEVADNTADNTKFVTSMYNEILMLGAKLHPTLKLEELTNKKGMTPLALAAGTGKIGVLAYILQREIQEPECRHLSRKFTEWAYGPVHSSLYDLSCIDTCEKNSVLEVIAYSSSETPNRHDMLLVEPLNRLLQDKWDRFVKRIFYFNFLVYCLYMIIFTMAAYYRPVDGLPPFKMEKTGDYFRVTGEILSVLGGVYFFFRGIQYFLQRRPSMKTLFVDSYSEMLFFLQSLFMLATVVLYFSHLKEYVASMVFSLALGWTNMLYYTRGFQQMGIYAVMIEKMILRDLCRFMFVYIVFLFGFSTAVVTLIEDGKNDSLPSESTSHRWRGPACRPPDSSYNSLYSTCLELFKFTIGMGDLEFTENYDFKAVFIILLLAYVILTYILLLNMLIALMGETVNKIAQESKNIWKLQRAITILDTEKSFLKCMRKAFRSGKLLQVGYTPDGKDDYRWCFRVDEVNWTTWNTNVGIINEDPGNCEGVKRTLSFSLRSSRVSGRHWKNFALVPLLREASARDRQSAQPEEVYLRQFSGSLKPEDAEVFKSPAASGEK

## COc1cc(CNC(=S)NC[C@H](COC(=O)C(C)(C)C)Cc2ccc(C(C)(C)C)cc2)ccc1O [Compound 2R]
[1]; hTRPV1
  fold greater potency than the racemate in binding affinity: 2 fold
[2]; hTRPV1
  fold greater potency than the racemate 2 in agonism: 1.5 fold

## COc1cc(CNC(=S)NC[C@@H](COC(=O)C(C)(C)C)Cc2ccc(C(C)(C)C)cc2)ccc1O [Compound 2S]
[1]; hTRPV1
  fold less potent than the racemate in binding affinity: 1.1 fold
[2]; hTRPV1
  fold less potent than 2 in agonism: 7 fold

## COc1cc(CNC(=S)NCC(COC(=O)C(C)(C)C)Cc2ccc(C(C)(C)C)cc2)ccc1O (stereo not drawn) [Compound 2]
[1]; [3]
  fold of the potency of RTX in binding affinity: ca. 5 fold
[2]; [3]
  fold of the potency of RTX in agonism: ~1.5 fold

## CC(C)(C)C(=O)OC[C@@H](CNC(=S)NCc1ccc(NS(C)(=O)=O)c(F)c1)Cc1ccc(C(C)(C)C)cc1 [Compound 3R]
[1]; hTRPV1
  fold greater potency than the racemate in binding affinity: 1.3 fold
[2]; hTRPV1
  fold greater potency than 3 in antagonism: 1.3 fold

## CC(C)(C)C(=O)OC[C@H](CNC(=S)NCc1ccc(NS(C)(=O)=O)c(F)c1)Cc1ccc(C(C)(C)C)cc1 [Compound 3S]
[1]; hTRPV1
  fold less potent than the racemate in binding affinity: 3 fold
[2]; hTRPV1
  fold less potency compared to 3 in antagonism: 1.3 fold

## CC(C)(C)C(=O)OCC(CNC(=S)NCc1ccc(NS(C)(=O)=O)c(F)c1)Cc1ccc(C(C)(C)C)cc1 (stereo not drawn) [Compound 3]
[1]; hTRPV1
  fold less potent than I-RTX in binding affinity: ca. 2 fold
[2]; hTRPV1
  fold less potent than I-RTX in antagonism: ~20 fold
